Measured values: patent US20030104461A1, “Methods for detecting cells with numerical chromosomal abnormalities” (priority 2001, published 2003)
Read-outs that look alike come from different tables or passages of the source.

Assays:
human lymphocytes [1] = experiment: Manual microscopic analysis of polyploid cells (polyploid index, Giemsa stained slides); type: cell-based; settings: at each concentration of Noscapine; 1000 consecutive mitotic cells scored for 8n mitotic cells
Description: Human lymphocytes described above and treated or not with Noscapine as described above were subjected to manual analysis of numerical chromosomal abnormalities for comparison with the number of cells having numerical chromosomal abnormalities (i.e. polyploidy) obtained in Example 1. For manual analysis, samples of cells were centrifuged for 6 minutes at 1000 rpm. The supernatant was removed and the cell pellet was resuspended in 5 ml of 1% pre-warmed (37° C.) sodium citrate. The latter solution was prepared by mixing 1 g of […] (Sigma Chemicals) in 100 ml of distilled water. The cells were immediately centrifuged as described above. The supernatant was removed and the pellet was vigorously re-suspended in 5 ml of 4° C. fixative (3:1 methanol:acetic acid). The cells were then centrifuged as described above and the pellet resuspended in 5 ml of 4° C. fixative (3:1 methanol:acetic acid). The cells were then stored overnight at −20° C. or until slide preparation. The slides were prepared as follows. The cells were centrifuged as described above and the supernatant was then poured off. The pellet was re-suspended in about 2 ml of fresh fixative solution. […] The polyploid index was determined by systematically scoring 1000 consecutive mitotic cells for the frequency of 8n mitotic cells under low magnification (bright field).

human lymphocytes [2] = test system: human lymphocytes
Description: Peripheral blood was collected in heparinized vacutainers from healthy male and female volunteers (<40 years of age). Approximate 10 ml of whole blood was dispensed into a Lymphoprep™ tube (Nycomed Pharma AS Diagnostic, Oslo, Norway) containing ˜10 ml of sterile phosphate buffered saline. Following centrifugation for 20 minutes at 2000 rpm, the lymphocyte population was isolated and washed (1X) in PBS. Stock cultures of isolated lymphocytes were established in Williams E medium supplemented with 10% fetal calf serum, 100 U/ml penicillin and 100 ug/ml streptomycin, 2 mM L-glutamine and 1.0% Phytohemmaglutanin-M form (all reagents from Gibco BRL Life Technologies, Inc., Grand Island, N.Y.). The stock cultures were maintained at 37° C. in 5% CO2 atmosphere for about 48 hours. The lymphocytes were treated with 0 to 100 μg/ml of the aneugen, Noscapine, (Sigma Chemicals), a known aneugen, for 24 hours at 37° C.
The Noscapine treated and untreated lymphocytes, were then centrifuged for 6 minutes at 1000 rpm, the supernatant was removed and the lymphocytes were resuspended in 5 ml of Phosphate Buffered Saline (PBS; GIBCO BRL). The lymphocytes were then centrifuged, the supernatant removed, and the cells resuspended in 0.5 ml of PBS. The cell suspension was pipetted thoroughly through a 9-inch Pasteur pipette (Kimble Glass Inc.) to ensure single cell suspension. While vortexing a tube containing −20° C. (70%) ethanol (about 4.5 ml volume), the cell suspension was added drop by drop. The ethanol solution was prepared by adding 30 ml of distilled water to 70 ml of 200 proof ethyl alcohol from Phamco Products. The cells were then stored at −20° C. in the ethanol for at least 24 hours.
The cells that were stored at −20° C. for at least 24 hours were stained with the H3-P antibody and Alexa Fluor as described above for the H3-P+Alexa (GREEN) stained cells. After the incubation of the cells for 30 minutes at 37° C. with the Alexa Fluor, 5 ml of PBS was added to the cells, the cells were centrifuged, the supernatant removed and the cell pellet resuspended in 1.0 ml of PI/RNase A stain (as described above). The cells were stored on ice until analyzed.
Exited instrument set up mode to acquisition mode. Acquisition for DNA analysis was started and 10,000 ungated cells were acquired. […] The FL2 voltage was optimized as needed per sample (i.e., to keep the G1 peak on 200 of FL2-A x-axis) for Aneuploidy and Polyploidy acquisition. 50,000 ungated cells were acquired from each sample. The data was saved in listmode format.
The presence of aneuploid and polyploid cells in the lymphocytes was determined as follows. CellQuest™ Software was opened, and PLOT and OPEN a dialog box from the tool bar for creating a dot plot. FILE was selected and a data file was opened. […] The dot plot was expanded to the width of the paper. A gate was set for the DNA distribution by starting slightly to the left of the cycling population then continuing to the far right region of the dot plot ending the gate at the 2nd Y axis. The extension of this gate to the 2nd Y-axis of the dot plot was to accommodate cells with greater than 4n DNA (see FIG. 1A). PLOT and OPEN a dialog box was chosen from the tool bar for creating a dot plot.
Using the interphase cells as a guide, the first gate was set over the mitotic cell area above the G0G1-S phase areas.

[3] = stimulated human lymphocytes treated 24 hours at 37° C., flow cytometry

`COc1ccc2c(c1OC)C(=O)O[C@@H]2[C@H]1c2c(cc3c(c2OC)OCO3)CCN1C` [Noscapine] was tested, and the “number of polyploid cells counted manually compared with flow cytometric evaluation” value (human lymphocytes [1]) was “similar”.

In the case of `C=C1[C@@H](C)[C@H]2[C@H](Cc3ccccc3)NC(=O)[C@]23OC(=O)/C=C/[C@H](O)CCC[C@@H](C)C/C=C/[C@H]3[C@@H]1O` [Cytochalasin B], the “percent of hyperdiploid cells (mitotic cells with DNA content >4n but <8n)” value (human lymphocytes [2]; [3]) is reported as “minimal”, the “percent of hypodiploid cells (mitotic cells with DNA content >2n but <4n)” value (human lymphocytes [2]; [3]) is reported as “high” and the “percent of polyploid cells (mitotic cells with DNA content of 8N)” value (human lymphocytes [2]; [3]) is reported as “high”.

`CN[C@H]1CCc2cc(OC)c(OC)c(OC)c2-c2ccc(OC)c(=O)cc21` [Colcemid®, Colcemid] was tested, and the “percent of hyperdiploid cells (mitotic cells with DNA content >4n but <8n)” value (human lymphocytes [2]) was “increased”, the “percent of hypodiploid cells (mitotic cells with DNA content >2n but <4n)” value (human lymphocytes [2]) was “increased” and the “percent of polyploid cells (mitotic cells with DNA content of 8N)” value (human lymphocytes [2]) was “high”.
